Laboratory results reported in BindingDB's records for patent US10479784 (VERTEX PHARMACEUTICALS INCORPORATED, 2019).

Target: Serine/threonine-protein kinase ATR (Homo sapiens, UniProt Q13535)
Assay: Inhibition Assay
Method: Compounds were screened for their ability to inhibit ATR kinase using a radioactive-phosphate incorporation assay. Assays were carried out in a mixture of 50 mM Tris/HCl (pH 7.5), 10 mM MgCl2 and 1 mM DTT. Final substrate concentrations were […] (3mCi 33P ATP/mmol ATP, Perkin Elmer) and 800 μM target peptide ([…]).Assays were carried out at 25° C. in the presence of 5 nM full-length ATR. An assay stock buffer solution was prepared containing all of the reagents listed above, with the exception of ATP and the test compound of interest. […] The plate was pre-incubated for 10 minutes at 25° C. and the reaction initiated by addition of 15 μL [γ-33P]ATP (final concentration 10 μM).The reaction was stopped after […] by the addition of 30 μL 0.1M phosphoric acid containing 2 mM ATP. A multiscreen phosphocellulose filter 96-well plate (Millipore, Cat no. MAPHN0B50) was pretreated with 100 μL 0.2M phosphoric acid prior to the addition of 45 μL of the stopped assay mixture.

Serine/threonine-protein kinase ATR, sequence (Q13535 whole entry): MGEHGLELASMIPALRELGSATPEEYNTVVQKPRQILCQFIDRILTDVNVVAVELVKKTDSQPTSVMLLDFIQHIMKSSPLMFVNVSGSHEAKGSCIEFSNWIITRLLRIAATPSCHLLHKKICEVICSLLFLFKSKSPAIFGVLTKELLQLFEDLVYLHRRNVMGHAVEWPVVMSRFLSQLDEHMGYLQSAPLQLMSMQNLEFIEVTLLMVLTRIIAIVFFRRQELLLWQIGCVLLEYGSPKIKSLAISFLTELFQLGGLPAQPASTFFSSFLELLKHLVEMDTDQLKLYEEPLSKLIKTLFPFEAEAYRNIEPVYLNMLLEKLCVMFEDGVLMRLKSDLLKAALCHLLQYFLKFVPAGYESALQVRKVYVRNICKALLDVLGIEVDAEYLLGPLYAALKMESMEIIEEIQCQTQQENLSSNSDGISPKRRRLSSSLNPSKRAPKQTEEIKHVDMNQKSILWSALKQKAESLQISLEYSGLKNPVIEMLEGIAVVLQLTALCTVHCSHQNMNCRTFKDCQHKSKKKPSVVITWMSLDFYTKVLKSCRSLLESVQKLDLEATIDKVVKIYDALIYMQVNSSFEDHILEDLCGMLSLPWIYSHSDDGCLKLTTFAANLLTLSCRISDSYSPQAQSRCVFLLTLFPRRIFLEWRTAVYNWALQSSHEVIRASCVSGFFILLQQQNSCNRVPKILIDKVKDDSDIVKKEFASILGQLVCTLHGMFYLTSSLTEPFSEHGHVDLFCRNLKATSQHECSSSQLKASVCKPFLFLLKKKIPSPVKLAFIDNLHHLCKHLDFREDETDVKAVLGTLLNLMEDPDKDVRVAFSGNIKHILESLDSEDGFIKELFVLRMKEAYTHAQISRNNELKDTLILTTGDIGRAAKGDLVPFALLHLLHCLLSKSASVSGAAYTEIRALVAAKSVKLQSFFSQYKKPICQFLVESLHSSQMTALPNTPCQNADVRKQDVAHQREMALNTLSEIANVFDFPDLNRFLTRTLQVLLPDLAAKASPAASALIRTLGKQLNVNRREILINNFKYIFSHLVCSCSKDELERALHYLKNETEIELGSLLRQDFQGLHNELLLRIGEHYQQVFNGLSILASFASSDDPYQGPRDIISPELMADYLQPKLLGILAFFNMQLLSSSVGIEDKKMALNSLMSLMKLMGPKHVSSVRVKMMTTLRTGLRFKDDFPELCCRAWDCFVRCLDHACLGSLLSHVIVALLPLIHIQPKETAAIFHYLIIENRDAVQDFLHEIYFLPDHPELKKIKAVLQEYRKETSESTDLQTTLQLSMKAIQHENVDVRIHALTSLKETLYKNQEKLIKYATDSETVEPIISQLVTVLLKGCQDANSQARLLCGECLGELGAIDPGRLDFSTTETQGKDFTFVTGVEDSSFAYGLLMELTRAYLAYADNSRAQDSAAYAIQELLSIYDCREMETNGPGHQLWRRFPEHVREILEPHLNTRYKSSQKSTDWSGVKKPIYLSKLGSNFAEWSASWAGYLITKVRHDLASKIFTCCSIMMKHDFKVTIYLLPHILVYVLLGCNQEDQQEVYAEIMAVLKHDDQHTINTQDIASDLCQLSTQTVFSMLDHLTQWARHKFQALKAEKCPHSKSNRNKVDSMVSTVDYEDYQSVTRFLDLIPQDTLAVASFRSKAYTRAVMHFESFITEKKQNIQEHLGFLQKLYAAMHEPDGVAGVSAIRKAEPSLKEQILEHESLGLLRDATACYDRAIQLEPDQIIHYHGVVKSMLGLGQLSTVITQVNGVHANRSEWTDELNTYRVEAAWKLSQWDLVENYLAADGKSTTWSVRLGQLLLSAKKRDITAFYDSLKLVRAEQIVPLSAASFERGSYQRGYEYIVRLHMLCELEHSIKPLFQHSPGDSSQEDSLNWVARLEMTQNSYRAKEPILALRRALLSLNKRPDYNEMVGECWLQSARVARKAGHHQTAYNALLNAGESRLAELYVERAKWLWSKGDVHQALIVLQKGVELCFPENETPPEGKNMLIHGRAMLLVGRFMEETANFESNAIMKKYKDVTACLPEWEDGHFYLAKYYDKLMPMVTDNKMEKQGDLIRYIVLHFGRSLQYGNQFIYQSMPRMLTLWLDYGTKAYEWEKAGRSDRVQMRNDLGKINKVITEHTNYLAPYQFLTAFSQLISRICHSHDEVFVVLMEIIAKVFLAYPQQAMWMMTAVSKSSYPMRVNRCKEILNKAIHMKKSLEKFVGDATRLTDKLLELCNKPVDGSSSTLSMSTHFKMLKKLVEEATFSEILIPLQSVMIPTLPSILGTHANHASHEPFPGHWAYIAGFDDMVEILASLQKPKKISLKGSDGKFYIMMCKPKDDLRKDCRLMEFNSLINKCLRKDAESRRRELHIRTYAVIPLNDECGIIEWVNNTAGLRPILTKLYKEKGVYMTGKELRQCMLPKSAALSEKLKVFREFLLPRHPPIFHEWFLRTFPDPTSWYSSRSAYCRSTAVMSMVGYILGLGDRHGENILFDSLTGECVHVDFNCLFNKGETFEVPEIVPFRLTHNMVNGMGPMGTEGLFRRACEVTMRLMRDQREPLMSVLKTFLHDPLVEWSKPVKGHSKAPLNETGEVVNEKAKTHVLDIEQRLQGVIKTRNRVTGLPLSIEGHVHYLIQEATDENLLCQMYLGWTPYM

Ki [µM]	SMILES
< 0.01	CNCc1ccc(C(=N)OC(=N)c2nc(-c3ccc(S(=O)(=O)C(C)C)c(OC(F)(F)F)c3)cnc2N)cc1 [US10479784, Compound IA-290]
< 0.01	CNCc1ccc(C(=N)OC(=N)c2nc(-c3ccc([S+]([O-])C(C)CCOC)cc3)cnc2N)c(F)c1 (configuration not stated) [US10479784, Compound IA-332]
